Our source for the IC50 values is ChEMBL document CHEMBL4152313, “Design, synthesis and bioevaluation of 2-mercapto-6-phenylpyrimidine-4-carboxylic acid derivatives as potent xanthine oxidase inhibitors” (Eur J Med Chem, 2018).

In the experiment the target is Xanthine dehydrogenase/oxidase (Homo sapiens, UniProt P47989). The experiment in a line: Inhibition of xanthine oxidase (unknown origin) using xanthine as substrate preincubated for 5 mins followed by substrate addition measured for 20 mins by spectrophotometric method.
Chain of Xanthine dehydrogenase/oxidase (P47989 whole entry): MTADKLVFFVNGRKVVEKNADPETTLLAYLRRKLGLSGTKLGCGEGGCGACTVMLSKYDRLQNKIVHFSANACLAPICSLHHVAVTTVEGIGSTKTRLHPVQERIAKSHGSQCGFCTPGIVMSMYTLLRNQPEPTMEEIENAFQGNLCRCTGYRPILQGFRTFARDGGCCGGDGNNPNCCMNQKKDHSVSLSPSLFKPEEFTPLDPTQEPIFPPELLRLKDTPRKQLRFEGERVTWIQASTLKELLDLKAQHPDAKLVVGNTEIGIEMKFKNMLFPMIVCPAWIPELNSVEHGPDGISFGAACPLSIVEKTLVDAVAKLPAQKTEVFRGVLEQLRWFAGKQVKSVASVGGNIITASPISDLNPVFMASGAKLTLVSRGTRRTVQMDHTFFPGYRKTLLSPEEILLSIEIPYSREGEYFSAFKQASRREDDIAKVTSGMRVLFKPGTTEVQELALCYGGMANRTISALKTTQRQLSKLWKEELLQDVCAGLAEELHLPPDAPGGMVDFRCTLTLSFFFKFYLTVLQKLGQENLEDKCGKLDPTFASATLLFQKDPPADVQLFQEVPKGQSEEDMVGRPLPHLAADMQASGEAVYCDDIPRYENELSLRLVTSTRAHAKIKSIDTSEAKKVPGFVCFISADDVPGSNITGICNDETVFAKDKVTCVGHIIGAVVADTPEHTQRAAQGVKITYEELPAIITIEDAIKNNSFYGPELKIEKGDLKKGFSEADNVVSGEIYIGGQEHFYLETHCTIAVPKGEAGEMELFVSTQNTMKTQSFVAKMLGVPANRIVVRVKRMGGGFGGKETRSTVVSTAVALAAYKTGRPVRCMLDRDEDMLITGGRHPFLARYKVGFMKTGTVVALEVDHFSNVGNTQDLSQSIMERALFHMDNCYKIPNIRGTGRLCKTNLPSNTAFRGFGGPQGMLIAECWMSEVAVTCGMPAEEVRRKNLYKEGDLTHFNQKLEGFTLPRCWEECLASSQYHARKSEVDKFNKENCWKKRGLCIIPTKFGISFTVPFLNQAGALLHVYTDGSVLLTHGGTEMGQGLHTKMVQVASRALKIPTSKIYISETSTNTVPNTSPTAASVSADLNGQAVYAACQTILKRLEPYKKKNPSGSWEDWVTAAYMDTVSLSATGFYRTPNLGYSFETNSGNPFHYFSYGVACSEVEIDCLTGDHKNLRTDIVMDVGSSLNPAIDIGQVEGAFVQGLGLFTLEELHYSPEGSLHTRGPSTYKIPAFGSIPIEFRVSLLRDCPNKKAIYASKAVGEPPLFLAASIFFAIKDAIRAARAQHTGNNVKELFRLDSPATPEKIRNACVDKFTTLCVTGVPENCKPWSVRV

Consider `Cc1nc(-c2ccc(OCC(C)C)c(C#N)c2)sc1C(=O)O` [FEBUXOSTAT], for which the IC50 (in general, the concentration that inhibits the measured activity by half) is 0.013 µM.
